Measurements taken from patent US20120101100A1 (priority 2008, published 2012).
pIC50: −log10 of the molar value. Structures can show the parent of a compound that is named as a salt.

The molecules below were run against S. aureus GyrB ATPase (Staphylococcus aureus, UniProt P0A0K8) (assay: S. aureus (SAU) GyrB ATPase inhibition, malachite green phosphate detection (E. coli GyrA + S. aureus GyrB)). Settings: 10 compound concentrations; 500 μM ATP.
Type: biochemical
How it was run: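 Phosphate from ATP hydrolysis (500 μM ATP) read as malachite green/molybdate absorbance at 650 nm after acid quench. Reaction: 1.25 nM S. aureus GyrB plus 1.25 nM E. coli GyrA, sheared DNA, Hepes pH 7.5 with Mg2+. IC50 fitted over 10 concentrations, normalised to DMSO (2%) and novobiocin (2 μM) controls.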

S. aureus GyrB ATPase, sequence (P0A0K8 whole entry): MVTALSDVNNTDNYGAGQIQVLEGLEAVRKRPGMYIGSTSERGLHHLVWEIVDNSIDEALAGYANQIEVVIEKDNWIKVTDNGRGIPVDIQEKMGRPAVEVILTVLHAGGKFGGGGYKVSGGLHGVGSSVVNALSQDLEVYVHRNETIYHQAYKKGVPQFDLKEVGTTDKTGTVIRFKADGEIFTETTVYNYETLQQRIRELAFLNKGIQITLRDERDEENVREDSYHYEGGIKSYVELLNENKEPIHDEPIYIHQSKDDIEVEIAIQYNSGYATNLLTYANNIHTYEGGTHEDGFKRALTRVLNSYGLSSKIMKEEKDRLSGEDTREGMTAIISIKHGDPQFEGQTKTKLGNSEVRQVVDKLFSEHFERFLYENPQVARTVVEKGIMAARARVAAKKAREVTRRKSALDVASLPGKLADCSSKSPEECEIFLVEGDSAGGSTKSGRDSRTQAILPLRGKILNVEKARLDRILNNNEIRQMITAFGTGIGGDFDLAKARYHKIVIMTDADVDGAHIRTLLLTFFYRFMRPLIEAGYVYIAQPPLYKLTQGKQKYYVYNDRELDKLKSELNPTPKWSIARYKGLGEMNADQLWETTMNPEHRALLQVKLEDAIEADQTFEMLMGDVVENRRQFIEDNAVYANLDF
S. aureus GyrB ATPase, sequence (P0AES4 whole entry, further chain): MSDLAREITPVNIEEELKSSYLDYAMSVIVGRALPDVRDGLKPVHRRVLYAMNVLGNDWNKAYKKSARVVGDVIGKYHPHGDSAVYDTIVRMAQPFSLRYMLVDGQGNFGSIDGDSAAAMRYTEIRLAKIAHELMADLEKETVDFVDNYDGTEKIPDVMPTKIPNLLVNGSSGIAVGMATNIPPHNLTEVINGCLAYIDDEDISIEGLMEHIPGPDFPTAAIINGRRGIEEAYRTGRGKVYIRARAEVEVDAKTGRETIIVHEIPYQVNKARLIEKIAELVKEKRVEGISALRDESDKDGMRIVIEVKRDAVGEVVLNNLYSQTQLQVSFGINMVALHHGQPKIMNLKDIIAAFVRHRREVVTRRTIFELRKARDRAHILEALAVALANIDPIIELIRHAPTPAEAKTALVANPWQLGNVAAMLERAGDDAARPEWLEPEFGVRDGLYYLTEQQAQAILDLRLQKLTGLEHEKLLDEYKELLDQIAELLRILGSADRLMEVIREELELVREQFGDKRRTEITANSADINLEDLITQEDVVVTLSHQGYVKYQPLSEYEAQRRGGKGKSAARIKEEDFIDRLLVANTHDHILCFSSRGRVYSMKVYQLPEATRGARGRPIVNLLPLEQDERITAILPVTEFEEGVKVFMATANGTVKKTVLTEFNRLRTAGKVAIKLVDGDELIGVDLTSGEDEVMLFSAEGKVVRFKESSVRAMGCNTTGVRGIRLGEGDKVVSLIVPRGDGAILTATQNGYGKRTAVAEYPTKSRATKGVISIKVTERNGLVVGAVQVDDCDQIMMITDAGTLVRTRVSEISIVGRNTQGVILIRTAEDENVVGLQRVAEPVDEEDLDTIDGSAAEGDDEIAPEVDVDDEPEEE

“1-Ethyl-3-(5′-(5-oxo-2,5-dihydro-1H-pyrazol-3-yl)-3,3′-bipyridin-6-yl)urea [Example 17]” showed a pIC50 of 8.00.

Same assay, conditions: compound concentration of 1.0 μM unless otherwise noted; average value where assay was carried out more than once

“1-Ethyl-3-(5′-(5-oxo-2,5-dihydro-1H-pyrazol-3-yl)-3,3′-bipyridin-6-yl)urea [Example 17]” was tested, and the “S. aureus (SAU) GyrB ATPase % Inhibition” value was 102.2%.

Same assay, conditions: compound concentration of 1.0 μM unless otherwise noted; average value where assay was carried out more than once; read-out: S. aureus (SAU) GyrB ATPase % Inhibition

First: CCNC(=O)Nc1cc(-c2nc(C(F)(F)F)c(C(=O)NC3CCCCC3)s2)c(-c2cncc(-c3nnc(C)o3)c2)cn1 [Example 70, N-cyclohexyl-2-(6-(3-ethylureido)-5′-(5-methyl-1,3,4-oxadiazol-2-yl)-3,3′-bipyridin-4-yl)-4-(trifluoromethyl)thiazole-5-carboxamide]
Second: CCNC(=O)Nc1cc(-c2nc(C(F)(F)F)c(C(=O)NC3CC3)s2)c(-c2cncc(-c3n[nH]c(=O)o3)c2)cn1 [Example 65]
The inhibition at 1 µM of the first is higher: 96% for the first, 94% for the second.

Compared with `CCNC(=O)Nc1cc(N2C[C@@H](C)O[C@@H](C)C2)c(-c2cncc(-c3n[nH]c(=O)o3)c2)cn1` [Example 150], `CCNC(=O)Nc1cc(-c2nc(C3CC3)cs2)c(-c2cncc(-c3n[nH]c(=O)o3)c2)cn1` [Example 210] is lower in inhibition at 1 µM: 96% for the first, 65% for the second.

Compared with `CCNC(=O)Nc1cc(-c2nc(-c3cccnc3OCCOC)cs2)c(-c2cnc(OC)c(-c3n[nH]c(=O)o3)c2)cn1` [Example 207], `CCNC(=O)Nc1cc(-c2nc(-c3ccccc3)cs2)c(-c2ccnc(-c3n[nH]c(=O)o3)c2)cn1` [Example 95, 1-ethyl-3-(2′-(5-oxo-4,5-dihydro-1,3,4-oxadiazol-2-yl)-4-(4-phenylthiazol-2-yl)-3,4′-bipyridin-6-yl)urea] is lower in inhibition at 1 µM: 101% for the first, 99% for the second.

First: CCNC(=O)Nc1cc(-c2nc(C(F)(F)F)c(CNCCN3CCOCC3)s2)c(-c2cncc(-c3n[nH]c(=O)o3)c2)cn1 [Example 51, 1-ethyl-3-(5′-(5-hydroxy-1,3,4-oxadiazol-2-yl)-4-(5-((2-morpholinoethylamino)methyl)-4-(trifluoromethyl)thiazol-2-yl)-3,3′-bipyridin-6-yl)urea trihydrochloride]
Second: CCNC(=O)Nc1cc(-c2nc(C(F)(F)F)c(C(=O)NCCN3CCOCC3)s2)c(-c2cncc(-c3nnc(C)o3)c2)cn1 [Example 62, 2-(6-(3-ethylureido)-5′-(5-methyl-1,3,4-oxadiazol-2-yl)-3,3′-bipyridin-4-yl)-N-(2-morpholinoethyl)-4-(trifluoromethyl)thiazole-5-carboxamide]
The inhibition at 1 µM of the first is higher: 98% for the first, 86% for the second.

First: CCNC(=O)Nc1cc(-c2nc(C(F)(F)F)cs2)c(-c2cc(-c3n[nH]c(=O)o3)cnc2OCCN2CCCC2)cn1 [Example 186]
Second: CCNC(=O)Nc1cc(-c2nc(C(F)(F)F)cs2)c(-c2cc(-c3n[nH]c(=O)o3)cnc2OCCN2CCN(C)CC2)cn1 [Example 99, 1-Ethyl-3-(2′-(2-(4-methylpiperazin-1-yl)ethoxy)-5′-(5-oxo-4,5-dihydro-1,3,4-oxadiazol-2-yl)-4-(4-(trifluoromethyl)thiazol-2-yl)-3,3′-bipyridin-6-yl)urea]
The inhibition at 1 µM of the first is higher: 110% for the first, 97% for the second.

First: CCNC(=O)Nc1cc(-c2nc(C(F)(F)F)cs2)c(-c2cncc(-c3nnc(COCCOC)o3)c2)cn1 [Example 278, 1-ethyl-3-(5′-(5-((2-methoxyethoxy)methyl)-1,3,4-oxadiazol-2-yl)-4-(4-(trifluoromethyl)thiazol-2-yl)-3,3′-bipyridin-6-yl)urea]
Second: CCNC(=O)Nc1cc(-c2nc(C(F)(F)F)cs2)c(-c2cncc(-c3nnc(COC)o3)c2)cn1 [Example 270, 1-ethyl-3-(5′-(5-(methoxymethyl)-1,3,4-oxadiazol-2-yl)-4-(4-(trifluoromethyl)thiazol-2-yl)-3,3′-bipyridin-6-yl)urea]
The inhibition at 1 µM of the first is lower: 68% for the first, 97% for the second.

Compared with `CCNC(=O)Nc1cc(-c2nc(C(F)(F)F)cs2)c(-c2ccnc(-c3nnc([C@@H](N)C4CCCCC4)o3)c2)cn1` [Example 241, (S)-1-(2′-(5-(amino(cyclohexyl)methyl)-1,3,4-oxadiazol-2-yl)-4-(4-(trifluoromethyl)thiazol-2-yl)-3,4′-bipyridin-6-yl)-3-ethylurea], `CCNC(=O)Nc1cc(-c2nc(C(F)(F)F)cs2)c(-c2cncc(-c3nnc(N4CCC(O)CC4)o3)c2)cn1` [Example 180] is lower in inhibition at 1 µM: 97% for the first, 96% for the second.

`CCNC(=O)Nc1cc(-c2nc(C(F)(F)F)cs2)c(-c2cncc(-c3nn(C(=O)N4CCCC4)c(=O)o3)c2)cn1` [Example 159] and `CCNC(=O)Nc1cc(-c2nc(C(F)(F)F)cs2)c(-c2cncc(-c3nn(C(C)=O)c(=O)o3)c2)cn1` [Example 161] are the same in inhibition at 1 µM: 97% for the first, 97% for the second.

First: CCNC(=O)Nc1cc(-c2nc(C(F)(F)F)cs2)c(-c2cncc(-c3nnc(N4CCN(C(C)=O)CC4)o3)c2)cn1 [Example 156]
Second: CCNC(=O)Nc1cc(-c2nc(C(F)(F)F)cs2)c(-c2cncc(-c3nnc(C)o3)c2)cn1 [Example 1, 1-Ethyl-3-(5′-(5-methyl-1,3,4-oxadiazol-2-yl)-4-(4-(trifluoromethyl)thiazol-2-yl)-3,3′-bipyridin-6-yl)urea]
The inhibition at 1 µM of the first is lower: 95% for the first, 99% for the second.

Compared with `CCNC(=O)Nc1cc(-c2nc(-c3ccccc3)cs2)c(-c2cc(OC(C)C)nc(-c3nnc(C)o3)c2)cn1` [Example 82, 1-ethyl-3-(2′-isopropoxy-6′-(5-methyl-1,3,4-oxadiazol-2-yl)-4-(4-phenylthiazol-2-yl)-3,4′-bipyridin-6-yl)urea], `CCNC(=O)Nc1cc(-c2nc(-c3ccccc3)cs2)c(-c2cc(-c3nnc(C)o3)nc(N3CCOCC3)c2)cn1` [Example 89, 1-ethyl-3-(2′-(5-methyl-1,3,4-oxadiazol-2-yl)-6′-morpholino-4-(4-phenylthiazol-2-yl)-3,4′-bipyridin-6-yl)urea] is higher in inhibition at 1 µM: 86% for the first, 87% for the second.

First: CCNC(=O)Nc1cc(-c2nc(C(F)(F)F)cs2)c(-c2cncc(-c3noc(=S)[nH]3)c2)cn1 [Example 18, 1-Ethyl-3-(5′-(5-thioxo-4,5-dihydro-1,2,4-oxadiazol-3-yl)-4-(4-(trifluoromethyl)thiazol-2-yl)-3,3′-bipyridin-6-yl)urea]
Second: CCNC(=O)Nc1cc(-c2nc(C(F)(F)F)cs2)c(-c2cncc(-c3nn(C)c(=O)o3)c2)cn1 [Example 140]
The inhibition at 1 µM of the first is higher: 113% for the first, 97% for the second.

Compared with `CCCNC(=O)Nc1cc(-c2nc(C(F)(F)F)cs2)c(-c2cc(-c3nnc(C)o3)cnc2OCCN(C)C)cn1` [Example 167], `CCCCOc1ncc(-c2cnc(NC(=O)NCC)cc2-c2nc(C(F)(F)F)cs2)cc1-c1nnc(C)o1` [Example 41] is higher in inhibition at 1 µM: 96% for the first, 109% for the second.

`CCNC(=O)Nc1cc(-c2nc(C(F)(F)F)cs2)c(-c2cncc(-c3nnc(COCc4ccccc4)o3)c2)cn1` [Example 266, 1-(5′-(5-(benzyloxymethyl)-1,3,4-oxadiazol-2-yl)-4-(4-(trifluoromethyl)thiazol-2-yl)-3,3′-bipyridin-6-yl)-3-ethylurea] and `CCNC(=O)Nc1cc(-c2nc(C(F)(F)F)cs2)c(-c2cncc(-c3nnc(CN(C)C)o3)c2)cn1` [Example 268, 1-(5′-(5-((dimethylamino)methyl)-1,3,4-oxadiazol-2-yl)-4-(4-(trifluoromethyl)thiazol-2-yl)-3,3′-bipyridin-6-yl)-3-ethylurea] are the same in inhibition at 1 µM: 98% for the first, 98% for the second.

Compared with `CCNC(=O)Nc1cc(-c2nc(-c3ccccn3)cs2)c(-c2cncc(-c3nnc(C)o3)c2)cn1` [Example 104, 1-Ethyl-3-(5′-(5-methyl-1,3,4-oxadiazol-2-yl)-4-(4-(pyridin-2-yl)thiazol-2-yl)-3,3′-bipyridin-6-yl)urea], `CCNC(=O)Nc1cc(-c2nc(C3CCCCC3)cs2)c(-c2cncc(-c3nnc(C)o3)c2)cn1` [Example 236, 1-(4-(4-cyclohexylthiazol-2-yl)-5′-(5-methyl-1,3,4-oxadiazol-2-yl)-3,3′-bipyridin-6-yl)-3-ethylurea] is higher in inhibition at 1 µM: 98% for the first, 109% for the second.

First: CCNC(=O)Nc1cc(-c2nc(C(F)(F)F)cs2)c(-c2cc(-c3n[nH]c(=O)o3)cnc2OC(C)CN(C)C)cn1 (stereo not drawn) [Example 118]
Second: CCNC(=O)Nc1cc(-c2nc(C(F)(F)F)cs2)c(-c2cnc(-c3n[nH]c(=O)o3)cn2)cn1 [Example 190]
The inhibition at 1 µM of the first is higher: 118% for the first, 100% for the second.

Compared with `CCNC(=O)Nc1cc(-c2nc(-c3cnn(C)c3)cs2)c(-c2cncc(-c3n[nH]c(=O)o3)n2)cn1` [Example 206], `CCNC(=O)Nc1cc(-c2nc(-c3ccccc3)cs2)c(-c2nc(-c3ncnn3C)c(-c3n[nH]c(=O)o3)s2)cn1` [Example 200] is lower in inhibition at 1 µM: 99% for the first, 93% for the second.

Going from `CCNC(=O)Nc1cc(-c2cnn(CC(C)C)c2)c(-c2cncc(-c3n[nH]c(=O)o3)c2)cn1` [Example 107, 1-Ethyl-3-(4-(1-isobutl-1H-pyrazol-4-yl)-5′-(5-oxo-4,5-dihydro-1,3,4-oxadiazol-2-yl)-3,3′-bipyridin-6-yl)urea] to `CC(C)NC(=O)Nc1cc(-c2nc(C(F)(F)F)cs2)c(-c2cncc(-c3n[nH]c(=O)o3)c2)cn1` [Example 42, 1-isopropyl-3-(5′-(5-oxo-4,5-dihydro-1,3,4-oxadiazol-2-yl)-4-(4-(trifluoromethyl)thiazol-2-yl)-3,3′-bipyridin-6-yl)urea], the inhibition at 1 µM rises from 97% to 106%.

Compared with `CCNC(=O)Nc1cc(-c2nc(C(F)(F)F)cs2)c(-c2cncc(-c3nn(CCOC)c(=O)o3)c2)cn1` [Example 160], `CCNC(=O)Nc1cc(-c2nc(C(F)(F)F)c(CNCCOC)s2)c(-c2cncc(-c3nnc(C)o3)c2)cn1` [Example 54, 1-ethyl-3-(4-(5-((2-methoxyethylamino)methyl)-4-(trifluoromethyl)thiazol-2-yl)-5′-(5-methyl-1,3,4-oxadiazol-2-yl)-3,3′-bipyridin-6-yl)urea] is lower in inhibition at 1 µM: 98% for the first, 97% for the second.

Same assay, conditions: read-out: S. aureus (SAU) GyrB ATPase % Inhibition

`CCNC(=O)Nc1cc(-c2nc(C(F)(F)F)cs2)c(-c2cc(-c3n[nH]c(=O)o3)c[n+]([O-])c2)cn1` [Example 139] gave an inhibition at 1 µM of 103%.
